As a reminder, the inhibition is how much of the control response was suppressed.

Holding throughout (format): in vivo
Assay [1] deals with rice (Oryza sativa L.) (var.: Nihonbare). Nature of the assay: Test Example 3, paddy field pot, transplanted rice. The note with it: applied 4th day after transplantation, 20th to 23rd day after application, read-out: Growth inhibition rate (%) Rice. An excerpt:
(§1) Paddy field soil was put into a 1/1,000,000 hectare pot, and seeds of barnyardgrass (Echinochloa oryzicola vasing.) and Japanese bulrush (Scirpus juncoides) were sown and lightly covered with soil. Then, pot was left to stand in a greenhouse in a state irrigated to a water depth of from 0.5 to 1 cm, and next day or two days later, tubers of Japanese ribbon waparo (Sagittaria pygmaea) were planted. Then, the irrigated water depth was maintained to be from 3 to 4 cm, and when barnyardgrass and Japanese bulrush reached 0.5 leaf stage, and Japanese ribbon waparo reached primary leaf stage, a water diluted solution of a wettable powder or an emulsifiable concentrate of the compound of the present invention prepared in accordance with a conventional preparation method, was uniformly dropwise applied by a pipette so that the amount of active ingredients would be a prescribed amount. Further, paddy field soil was put into a 1/1,000,000 pot, followed by soil puddling to an irrigated water depth of from 3 to 4 cm. Next day, rice (Oryza sativa L.) (var.: Nihonbare) of two leaf stage was transplanted in a transplantation depth of 3 cm. On the 4th day after transplantation, the compound of the present invention was applied in the same manner as described above.
(§2) On the 13th to 17th day after application, the state of growth of barnyardgrass, Japanese bulrush and Japanese ribbon waparo was visually observed, and on the 20th to 23rd day after application, the state of growth of rice was visually observed, and the herbicidal effect was evaluated by a growth inhibition rate (%) of 0 (equivalent to the non-treated area) to 100% (complete kill).

Assay [2] has as its system corn (Zea mays L.). The assay can be described thus: Test Example 2, soil application on the day after sowing. As to conditions: 21st to 22nd day after application, visual, read-out: Growth inhibition rate (%) Corn. From the text: (§3) Upland field soil was put into a 1/170,000 hectare pot, and seeds of various plants (barnyardgrass (Echinochloa crus-galli L.), crabgrass (Digitaria sanquinalis L.), green foxtail (Setaria viridis L.), redroot pigweed (Amaranthus retroflexus L.), prickly sida (Sida spinosa L.), velvetleaf (Abutilon theophrasti MEDIC.), rice (Oryza sativa L.), corn (Zea mays L.), soybean (Glycine max Merr.)) and wheat (Triticum spp.) were sown. On the day after sowing, wettable powders or emulsifiable concentrates of the compounds of the present invention prepared in accordance with a conventional preparation method, were weighed so that the active ingredients became the prescribed amounts, and diluted with water in an amount corresponding to 500 liter per 1 hectare, followed by soil application with a small sprayer.
(§4) On the 21st to 22nd day after the application, the state of growth of the respective plants was visually observed, and the herbicidal effect was evaluated by a growth inhibition rate (%) of from 0 (equivalent to the non-treated area) to 100% (complete kill).

The subject of assay [3] is rice (Oryza sativa L.). Described as above. As to conditions: 21st to 22nd day after application, visual, read-out: Growth inhibition rate (%) Rice.
Source text: as §3, §4

Assay [4] deals with barnyardgrass (Echinochloa crus-galli L.). Described as above. As to conditions: 21st to 22nd day after application, visual, read-out: Growth inhibition rate (%) Barnyardgrass.
Source text: as §3, §4

In assay [5] the test system is redroot pigweed (Amaranthus retroflexus L.). The description is as above. The note with it: 21st to 22nd day after application, visual, read-out: Growth inhibition rate (%) Redroot pigweed.
Source text: as §3, §4

Assay [6] concerns velvetleaf (Abutilon theophrasti MEDIC.). Described as above. The note with it: 21st to 22nd day after application, visual, read-out: Growth inhibition rate (%) Velvetleaf.
Source text: as §3, §4

Assay [7] relates to soybean (Glycine max Merr.). The assay is described as above. As to conditions: 21st to 22nd day after application, visual, read-out: Growth inhibition rate (%) Soybean.
Source text: as §3, §4

Assay [8] has as its system prickly sida (Sida spinosa L.). The assay is described as above. The note with it: 21st to 22nd day after application, visual, read-out: Growth inhibition rate (%) Prickly sida.
Source text: as §3, §4

Assay [9] relates to green foxtail (Setaria viridis L.). Described as above. As to conditions: 21st to 22nd day after application, visual, read-out: Growth inhibition rate (%) Green foxtail.
Source text: as §3, §4

In assay [10] the test system is wheat (Triticum spp.). Described as above. The note with it: 21st to 22nd day after application, visual, read-out: Growth inhibition rate (%) Wheat.
Source text: as §3, §4

Assay [11] concerns crabgrass (Digitaria sanquinalis L.). The assay is described as above. The note with it: 21st to 22nd day after application, visual, read-out: Growth inhibition rate (%) Crabgrass.
Source text: as §3, §4

Assay [12] deals with rice (Oryza sativa L.). The assay can be described thus: Test Example 1, foliar treatment in upland pots. The note with it: 20th to 22nd day after application, visual, read-out: Growth inhibition rate (%) Rice. An excerpt: (§5) Upland field soil was put into a 1/170,000 hectare pot, and seeds of various plants were sown. When the respective plants reached predetermined leaf stage ((1) barnyardgrass (Echinochloa crus-galli L.): 1.2 to 3.0 leaf stage, (2) crabgrass (Digitaria sanguinalis L.): 1.0 to 3.0 leaf stage, (3) green foxtail (Setaria viridis L.): 1.5 to 3.0 leaf stage, (4) redroot pigweed (Amaranthus retroflexus L.): cotyledon stage to 1.5 leaf stage, (5) prickly sida (Sida spinosa L.): cotyledon stage to 2.0 leaf stage, (6) velvetleaf (Abutilon theophrasti MEDIC.): cotyledon stage to 1.3 leaf stage, (7) rice (Oryza sativa L.): 1.2 to 2.5 leaf stage, (8) corn (Zea mays L.): 2.0 to 3.3 leaf stage, (9) soybean (Glycine max Merr.): primary leaf stage to 0.3 leaf stage) and wheat (Triticum spp.): 2.0 to 3.0 leaf stage, wettable powders or emulsifiable concentrates of the compounds of the present invention prepared in accordance with a conventional preparation method, were weighed so that the active ingredients became the prescribed amounts, and diluted with water in an amount corresponding to 500 liter per 1 hectare (containing 0.1 vol % of an agricultural spreader (“KUSARINOH”, manufactured by NIHON NOHYAKU CO., LTD.)). The spray solutions thus prepared were applied for foliar treatment by a small sprayer.
(§6) On the 20th to 22nd day after application, the state of growth of the respective plants was visually observed, and the herbicidal effect was evaluated by a growth inhibition rate (%) of 0 (equivalent to the non-treated area) to 100% (complete kill).

Assay [13] relates to barnyardgrass (Echinochloa crus-galli L.). The assay can be described thus: Test Example 1, foliar treatment in upland pots. The note with it: 20th to 22nd day after application, visual, read-out: Growth inhibition rate (%) Barnyardgrass.
Source text: as §5, §6

Assay [14] concerns redroot pigweed (Amaranthus retroflexus L.). The assay can be described thus: Test Example 1, foliar treatment in upland pots. As to conditions: 20th to 22nd day after application, visual, read-out: Growth inhibition rate (%) Redroot pigweed.
Source text: as §5, §6

Assay [15] deals with velvetleaf (Abutilon theophrasti MEDIC.). The assay can be described thus: Test Example 1, foliar treatment in upland pots. As to conditions: 20th to 22nd day after application, visual, read-out: Growth inhibition rate (%) Velvetleaf.
Source text: as §5, §6

Assay [16] concerns soybean (Glycine max Merr.). The assay can be described thus: Test Example 1, foliar treatment in upland pots. As to conditions: 20th to 22nd day after application, visual, read-out: Growth inhibition rate (%) Soybean.
Source text: as §5, §6

Assay [17] has as its system green foxtail (Setaria viridis L.). Nature of the assay: Test Example 1, foliar treatment in upland pots. The note with it: 20th to 22nd day after application, visual, read-out: Growth inhibition rate (%) Green foxtail.
Source text: as §5, §6

The test system of assay [18] is wheat (Triticum spp.). Nature of the assay: Test Example 1, foliar treatment in upland pots. The note with it: 20th to 22nd day after application, visual, read-out: Growth inhibition rate (%) Wheat.
Source text: as §5, §6

Assay [19] concerns crabgrass (Digitaria sanguinalis L.). Nature of the assay: Test Example 1, foliar treatment in upland pots. As to conditions: 20th to 22nd day after application, visual, read-out: Growth inhibition rate (%) Crabgrass.
Source text: as §5, §6

The test system of assay [20] is Japanese bulrush (Scirpus juncoides). The assay can be described thus: Test Example 3, paddy field pot, application to irrigated water. The note with it: Schoenoplectiella juncoides, applied at 0.5 leaf stage, 13th to 17th day after application, read-out: Growth inhibition rate (%) Japanese bulrush.
Source text: as §1, §2

The test system of assay [21] is Japanese ribbon waparo (Sagittaria pygmaea). The assay is described as above. As to conditions: applied at primary leaf stage, 13th to 17th day after application, read-out: Growth inhibition rate (%) Japanese ribbon waparo.
Source text: as §1, §2

For assay [22], the system named is barnyardgrass (Echinochloa oryzicola vasing.). The description is as above. The note with it: applied at 0.5 leaf stage, 13th to 17th day after application, read-out: Growth inhibition rate (%) barnyard grass.
Source text: as §1, §2

The subject of assay [23] is corn (Zea mays L.). The assay can be described thus: Test Example 1, foliar treatment in upland pots. As to conditions: 20th to 22nd day after application, visual, read-out: Growth inhibition rate (%) Corn.
Source text: as §5, §6

The subject of assay [24] is prickly sida (Sida spinosa L.). The assay can be described thus: Test Example 1, foliar treatment in upland pots. As to conditions: 20th to 22nd day after application, visual, read-out: Growth inhibition rate (%) Prickly sida.
Source text: as §5, §6

In the case of `CCOCc1c(S(C)(=O)=O)ccc(C(=O)c2cnn(C)c2OC(C)OC(=O)OC)c1C` (stereo not drawn) [Compound No. 1-1, 1-(4-(3-(Ethoxymethyl)-2-methyl-4-(methylsulfonyl)benzoyl)-1-methyl-1H-pyrazol-5-yloxy)ethyl methyl carbonate], the inhibition at 63 g/ha in [1] worked out at 10%; in assay [20], 70%; in assay [21], 90%; in assay [22] it was 100%. The inhibition at 250 g/ha stood at 10% in the assay with corn (Zea mays L.) [2]; 95% in the assay on rice (Oryza sativa L.) [3]; 100% in [4]; 90% in assay [5]; 98% in assay [6]; 20% in assay [7]. Further, the inhibition at 250 g/ha in [8] is 90%; in assay [9], 98%; in the assay on wheat (Triticum spp.) [10] it was 20%; in assay [11] it was 100%. For the same compound, the inhibition at 7 g/ha was 20% in the assay with rice (Oryza sativa L.) [12]; 95% in assay [13]; 60% in assay [14]; 50% in [15]; 70% in assay [16]; 60% in assay [17]. Also, the inhibition at 7 g/ha was 0% with wheat (Triticum spp.) [18] and 90% in [19].
`COCc1c(S(C)(=O)=O)ccc(C(=O)c2cnn(C)c2OC(C)OC(=O)OC)c1C` (stereo not drawn) [Compound No. 1-3, 1-(4-(3-(Methoxymethyl)-2-methyl-4-(methylsulfonyl)benzoyl)-1-methyl-1H-pyrazol-5-yloxy)ethyl methyl carbonate]: the inhibition at 63 g/ha was found to be 40% in [1], 70% in assay [20], 70% in assay [21] and 100% in assay [22]. The inhibition at 250 g/ha in the assay with corn (Zea mays L.) [2] was determined as 20%; in the assay with rice (Oryza sativa L.) [3], 98%; in assay [4], 98%; in assay [5] it was 98%; in [6], 100%; in [7], 60%. In addition, the inhibition at 250 g/ha in assay [8] was 95%; in assay [9], 98%; in the assay on wheat (Triticum spp.) [10], 10%; in assay [11], 98%. Besides, the inhibition at 7 g/ha with rice (Oryza sativa L.) [12] was 60%; in assay [13], 90%; in assay [14] it was 80%; in [15], 75%; in assay [16] it was 70%; in assay [17], 80%. Moreover, the inhibition at 7 g/ha stood at 0% in the assay on wheat (Triticum spp.) [18] and 95% in [19].
Take `CCn1ncc(C(=O)c2ccc(S(C)(=O)=O)c(C(=O)OC)c2C)c1OC(C)OC(=O)OC` (stereo not drawn) [Compound No. 2-2, Methyl 3-(5-(1-(methoxycarbonyloxy)ethoxy)-1-ethyl-1H-pyrazole-4-carbonyl)-2-methyl-6-(methylsulfonyl)benzoate]: the inhibition at 63 g/ha in assay [1] was found to be 80%; in assay [20], 80%; in assay [21], 90%; in assay [22], 100%. The inhibition at 7 g/ha is 0% in the assay with corn (Zea mays L.) [23]; 50% in the assay on rice (Oryza sativa L.) [12]; 98% in assay [13]; 98% in assay [14]; 95% in [15]; 70% in assay [24]. Besides, the inhibition at 7 g/ha in assay [17] came out at 80%; in the assay on wheat (Triticum spp.) [18] it was 0%; in [19], 80%.

For the origin of these results see patent publication US8466089B2, “Pyrazole compounds, process for their production and herbicides containing them” (Ishihara Sangyo Kaisha, Ltd., priority 2008, dated 2013).
